{"source": "paper PMC11310081", "about": "“Deep-learning-enabled antibiotic discovery through molecular de-extinction” (Nature Biomedical Engineering, 2024)", "key": {"[1]": {"system": "E. faecalis ATCC 700802 (vancomycin-resistant strain)", "type": "cell-based, Enterococcus faecalis", "conditions": "ATCC 700802, 20 h", "from_the_text": "The following Gram-negative bacteria were used in our study: A. baumannii ATCC 19606, E. coli ATCC 11775, E. coli AIC221 (E. coli MG1655 phnE_2::FRT), E. coli AIC222 (E. coli MG1655 pmrA53 phnE_2::FRT (colistin resistant)), K. pneumoniae ATCC 13883, P. aeruginosa PAO1 and P. aeruginosa PA14. The following Gram-positive bacteria were also used in our study: S. aureus ATCC 12600, S. aureus ATCC BAA-1556 (methicillin-resistant strain), E. faecalis ATCC 700802 (vancomycin-resistant strain) and E. faecium ATCC 700221 (vancomycin-resistant strain). Bacteria were grown from frozen stocks and plated on Luria–Bertani (LB) or Pseudomonas isolation agar plates (P. aeruginosa strains) and incubated overnight at 37 °C. After the incubation period, a single colony was transferred to 5 ml of LB medium, and cultures were incubated overnight (16 h) at 37 °C. The following day, an inoculum was prepared by diluting the overnight cultures 1:100 in 5 ml of the respective media and incubating them at 37 °C until bacteria reached logarithmic phase (OD600 = 0.3–0.5).\nThe in vitro antimicrobial activity of the peptides was assessed by using the broth microdilution assay. […] Aqueous solutions of the peptides were added to the plate at concentrations ranging from 1 to 64 μmol l^−1. […] The optical density of the plates was measured at 600 nm using a spectrophotometer. […]"}, "[2]": {"system": "11 clinically relevant bacterial pathogens", "type": "cell-based", "conditions": "Supplementary Dataset 2; against the 11 pathogens tested", "summary_of_the_method": "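Strains, plated on LB or Pseudomonas isolation agar, were subcultured 1:100 and grown at 37 °C into logarithmic phase before peptide dilutions (1–64 μmol l^−1) were applied. Absorbance at 600 nm gave growth; three biological replicates.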"}, "[3]": {"system": "HEK293T cells", "conditions": "24 h", "summary_of_the_method": "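5,000 cells/well seeded a day ahead in DMEM with 10% FBS, then treated with peptides; viability by MTT (0.5 mg/ml, 4 h, 37 °C), formazan in acidic isopropanol read at 570 nm. Concentration causing 50% lysis from non-linear regression; three biological replicates, two technical each.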"}}, "note": "Peptide text beside a SMILES is read from it.", "data": [{"smiles": "CC[C@H](C)[C@H](NC(=O)[C@H](CCCCN)NC(=O)[C@H](CC(C)C)NC(=O)[C@H](CCC(N)=O)NC(=O)[C@H](Cc1ccccc1)NC(=O)[C@@H](NC(=O)[C@@H](NC(=O)[C@H](Cc1ccccc1)NC(=O)[C@H](CC(C)C)NC(=O)[C@@H](NC(=O)[C@@H](N)CC(C)C)[C@@H](C)O)[C@@H](C)CC)[C@@H](C)CC)C(=O)N[C@@H](CO)C(=O)N[C@@H](CCCCN)C(=O)N[C@@H](CC(C)C)C(=O)O", "note": "[Paleopropin-1] (H-LTLFIIFQLKISKL-OH; N-terminus and C-terminus assumed)", "values": [{"measurement": "Minimal inhibitory concentration, E. faecalis ATCC700802-VRE", "setting": "[1]", "value": 16, "unit": "µM"}, {"measurement": "Active or Inactive", "setting": "[2]", "value": "Active"}, {"measurement": "CC50", "setting": "[3]", "value": "> 128", "unit": "µM"}, {"measurement": "TI (therapeutic index)", "setting": "[3]", "value": "> 4"}]}]}
